The values that follow are results of earlier work, collected in US20250275937A1, “Methods For Reducing Negative Effects Of Alcohol Consumption” (Honed Life Sciences, LLC, priority 2018, published 2025).

For data set [1], the system named is acute alcohol (EtOH) intoxication. Conditions: rats.
For data set [2], the system named is oxidative stress and liver fibrogenesis. Particulars: mice.

Take `O=C1c2c(O)cc(O)cc2O[C@H](c2cc(O)c(O)c(O)c2)[C@H]1O` [DHM, dihydromyricetin]: the “Action on acute EtOH-induced potentiation of GABA receptors” value with GABA receptors is on record as “antagonizing”. Also, the “Counteracting acute alcohol (EtOH) intoxication and withdrawal signs (tolerance, increased anxiety, seizure susceptibility)” value in data set [1] was “highly effective”. Consider `O=C(O)c1cc(C(=O)O)c2c(n1)C(=O)C(=O)c1cc(C(=O)O)[nH]c1-2` [PQQ, pyrroloquinoline quinone], for which the “Effect on oxidative stress and liver fibrogenesis” value in data set [2] was “suppresses oxidative stress and liver fibrogenesis”.
